Test results: paper PMC11420776 (RSC Advances, 2024)

Legend:
KM12 (colon cancer) = test: NCI 60-cell one-dose antiproliferative screen; format: cell-based, human; settings: one dose 10 μM
[1] = tested on: NCI-H522 (NSC lung cancer); test: NCI 60-cell one-dose antiproliferative screen; format: cell-based, human; settings: one dose 10 μM
SK-MEL-28 (melanoma) = test: NCI 60-cell one-dose antiproliferative screen; format: cell-based, human; settings: one dose 10 μM
IGROV1 (ovarian cancer) = test: NCI 60-cell one-dose antiproliferative screen; format: cell-based, human; settings: one dose 10 μM
ACHN (renal cancer) = test: NCI 60-cell one-dose antiproliferative screen; format: cell-based, human; settings: one dose 10 μM
OVCAR-5 (ovarian cancer) = test: NCI 60-cell one-dose antiproliferative screen; format: cell-based, human; settings: one dose 10 μM
SF-295 (CNS cancer) = test: NCI 60-cell one-dose antiproliferative screen; format: cell-based, human; settings: one dose 10 μM
SF-268 (CNS cancer) = test: NCI 60-cell one-dose antiproliferative screen; format: cell-based, human; settings: one dose 10 μM
[2] = tested on: NCI/ADR-RES (ovarian cancer); test: NCI 60-cell one-dose antiproliferative screen; format: cell-based, human; settings: one dose 10 μM
TK-10 (renal cancer) = test: NCI 60-cell one-dose antiproliferative screen; format: cell-based, human; settings: one dose 10 μM
[3] = tested on: NCI-H23 (NSC lung cancer); test: NCI 60-cell one-dose antiproliferative screen; format: cell-based, human; settings: one dose 10 μM
MDA-MB-435 (melanoma) = test: NCI 60-cell one-dose antiproliferative screen; format: cell-based, human; settings: one dose 10 μM
HCT-116 (colon cancer) = test: NCI 60-cell one-dose antiproliferative screen; format: cell-based, human; settings: one dose 10 μM
SK-MEL-2 (melanoma) = test: NCI 60-cell one-dose antiproliferative screen; format: cell-based, human; settings: one dose 10 μM
[4] = tested on: A549/ATCC (NSC lung cancer); test: NCI 60-cell one-dose antiproliferative screen; format: cell-based, human; settings: one dose 10 μM
HS 578T (breast cancer) = test: NCI 60-cell one-dose antiproliferative screen; format: cell-based, human; settings: one dose 10 μM
[5] = tested on: MDA-MB-231/ATCC (breast cancer); test: NCI 60-cell one-dose antiproliferative screen; format: cell-based, human; settings: one dose 10 μM
PC-3 (prostate cancer) = test: NCI 60-cell one-dose antiproliferative screen; format: cell-based, human; settings: one dose 10 μM
OVCAR-4 (ovarian cancer) = test: NCI 60-cell one-dose antiproliferative screen; format: cell-based, human; settings: one dose 10 μM
HCC-2998 (colon cancer) = test: NCI 60-cell one-dose antiproliferative screen; format: cell-based, human; settings: one dose 10 μM
M14 (melanoma) = test: NCI 60-cell one-dose antiproliferative screen; format: cell-based, human; settings: one dose 10 μM
MCF7 (breast cancer) = test: NCI 60-cell one-dose antiproliferative screen; format: cell-based, human; settings: one dose 10 μM
CAKI-1 (renal cancer) = test: NCI 60-cell one-dose antiproliferative screen; format: cell-based, human; settings: one dose 10 μM
LOX IMIV (melanoma) = test: NCI 60-cell one-dose antiproliferative screen; format: cell-based, human; settings: one dose 10 μM
CCRF-CEM (leukemia) = test: NCI 60-cell one-dose antiproliferative screen; format: cell-based, human; settings: one dose 10 μM
[6] = tested on: NCI-H226 (NSC lung cancer); test: NCI 60-cell one-dose antiproliferative screen; format: cell-based, human; settings: one dose 10 μM
U251 (CNS cancer) = test: NCI 60-cell one-dose antiproliferative screen; format: cell-based, human; settings: one dose 10 μM
UO-31 (renal cancer) = test: NCI 60-cell one-dose antiproliferative screen; format: cell-based, human; settings: one dose 10 μM
SW-620 (colon cancer) = test: NCI 60-cell one-dose antiproliferative screen; format: cell-based, human; settings: one dose 10 μM
SNB-75 (CNS cancer) = test: NCI 60-cell one-dose antiproliferative screen; format: cell-based, human; settings: one dose 10 μM
SNB-19 (CNS cancer) = test: NCI 60-cell one-dose antiproliferative screen; format: cell-based, human; settings: one dose 10 μM
T-47D (breast cancer) = test: NCI 60-cell one-dose antiproliferative screen; format: cell-based, human; settings: one dose 10 μM
HT29 (colon cancer) = test: NCI 60-cell one-dose antiproliferative screen; format: cell-based, human; settings: one dose 10 μM
RPMI-8226 (leukemia) = test: NCI 60-cell one-dose antiproliferative screen; format: cell-based, human; settings: one dose 10 μM
786-0 (renal cancer) = test: NCI 60-cell one-dose antiproliferative screen; format: cell-based, human; settings: one dose 10 μM
COLO-205 (colon cancer) = test: NCI 60-cell one-dose antiproliferative screen; format: cell-based, human; settings: one dose 10 μM
UACC-62 (melanoma) = test: NCI 60-cell one-dose antiproliferative screen; format: cell-based, human; settings: one dose 10 μM
OVCAR-3 (ovarian cancer) = test: NCI 60-cell one-dose antiproliferative screen; format: cell-based, human; settings: one dose 10 μM
RXF 393 (renal cancer) = test: NCI 60-cell one-dose antiproliferative screen; format: cell-based, human; settings: one dose 10 μM
[7] = tested on: MDA-MB-468 (breast cancer); test: NCI 60-cell one-dose antiproliferative screen; format: cell-based, human; settings: one dose 10 μM
A498 (renal cancer) = test: NCI 60-cell one-dose antiproliferative screen; format: cell-based, human; settings: one dose 10 μM
OVCAR-8 (ovarian cancer) = test: NCI 60-cell one-dose antiproliferative screen; format: cell-based, human; settings: one dose 10 μM
SN12C (renal cancer) = test: NCI 60-cell one-dose antiproliferative screen; format: cell-based, human; settings: one dose 10 μM
SF-539 (CNS cancer) = test: NCI 60-cell one-dose antiproliferative screen; format: cell-based, human; settings: one dose 10 μM
[8] = tested on: NCI-H460 (NSC lung cancer); test: NCI 60-cell one-dose antiproliferative screen; format: cell-based, human; settings: one dose 10 μM
UACC-257 (melanoma) = test: NCI 60-cell one-dose antiproliferative screen; format: cell-based, human; settings: one dose 10 μM
HOP-92 (NSC lung cancer) = test: NCI 60-cell one-dose antiproliferative screen; format: cell-based, human; settings: one dose 10 μM
SK-OV-3 (ovarian cancer) = test: NCI 60-cell one-dose antiproliferative screen; format: cell-based, human; settings: one dose 10 μM
[9] = tested on: NCI-H322M (NSC lung cancer); test: NCI 60-cell one-dose antiproliferative screen; format: cell-based, human; settings: one dose 10 μM
HCT-15 (colon cancer) = test: NCI 60-cell one-dose antiproliferative screen; format: cell-based, human; settings: one dose 10 μM
EKVX (NSC lung cancer) = test: NCI 60-cell one-dose antiproliferative screen; format: cell-based, human; settings: one dose 10 μM
MALME-3M (melanoma) = test: NCI 60-cell one-dose antiproliferative screen; format: cell-based, human; settings: one dose 10 μM
DU-145 (prostate cancer) = test: NCI 60-cell one-dose antiproliferative screen; format: cell-based, human; settings: one dose 10 μM
[10] = tested on: 60 human tumor cell lines; test: NCI 60-cell one-dose antiproliferative screen, whole panel; format: cell-based; settings: Homo sapiens, 60 cell, read-out: Mean inhibition (mean GI%)
HOP-62 (NSC lung cancer) = test: NCI 60-cell one-dose antiproliferative screen; format: cell-based, human; settings: one dose 10 μM

## O=[N+]([O-])c1ccc(C=NNc2ccc3nnc(-c4ccccc4)n3n2)cc1 [Compound 4b, 6-(2-(4-Nitrobenzylidene)hydrazinyl)-3-phenyl-[1,2,4]triazolo[4,3-b]pyridazine]
KM12 (colon cancer)
  GI%: — (— GI% is below 15%)
[1]
  GI%: — (— GI% is below 15%)
SK-MEL-28 (melanoma)
  GI%: — (— GI% is below 15%)
IGROV1 (ovarian cancer)
  GI%: — (— GI% is below 15%)
ACHN (renal cancer)
  GI%: — (— GI% is below 15%)
OVCAR-5 (ovarian cancer)
  GI%: — (— GI% is below 15%)
SF-295 (CNS cancer)
  GI%: — (— GI% is below 15%)
SF-268 (CNS cancer)
  GI%: — (— GI% is below 15%)
[2]
  GI%: — (— GI% is below 15%)
TK-10 (renal cancer)
  GI%: — (— GI% is below 15%)
[3]
  GI%: — (— GI% is below 15%)
MDA-MB-435 (melanoma)
  GI%: — (— GI% is below 15%)
HCT-116 (colon cancer)
  GI%: — (— GI% is below 15%)
SK-MEL-2 (melanoma)
  GI%: — (— GI% is below 15%)
[4]
  GI%: — (— GI% is below 15%)
HS 578T (breast cancer)
  GI%: — (— GI% is below 15%)
[5]
  GI%: — (— GI% is below 15%)
PC-3 (prostate cancer)
  GI%: — (— GI% is below 15%)
OVCAR-4 (ovarian cancer)
  GI%: — (— GI% is below 15%)
HCC-2998 (colon cancer)
  GI%: — (— GI% is below 15%)
M14 (melanoma)
  GI%: — (— GI% is below 15%)
MCF7 (breast cancer)
  GI%: — (— GI% is below 15%)
CAKI-1 (renal cancer)
  GI%: — (— GI% is below 15%)
LOX IMIV (melanoma)
  GI%: — (— GI% is below 15%)
CCRF-CEM (leukemia)
  GI%: — (— GI% is below 15%)
[6]
  GI%: — (— GI% is below 15%)
U251 (CNS cancer)
  GI%: — (— GI% is below 15%)
UO-31 (renal cancer)
  GI%: — (— GI% is below 15%)
SW-620 (colon cancer)
  GI%: — (— GI% is below 15%)
SNB-75 (CNS cancer)
  GI%: — (— GI% is below 15%)
SNB-19 (CNS cancer)
  GI%: — (— GI% is below 15%)
T-47D (breast cancer)
  GI%: — (— GI% is below 15%)
HT29 (colon cancer)
  GI%: — (— GI% is below 15%)
RPMI-8226 (leukemia)
  GI%: — (— GI% is below 15%)
786-0 (renal cancer)
  GI%: — (— GI% is below 15%)
COLO-205 (colon cancer)
  GI%: — (— GI% is below 15%)
UACC-62 (melanoma)
  GI%: — (— GI% is below 15%)
OVCAR-3 (ovarian cancer)
  GI%: — (— GI% is below 15%)
RXF 393 (renal cancer)
  GI%: — (— GI% is below 15%)
[7]
  GI%: — (— GI% is below 15%)
A498 (renal cancer)
  GI%: — (— GI% is below 15%)
OVCAR-8 (ovarian cancer)
  GI%: — (— GI% is below 15%)
SN12C (renal cancer)
  GI%: — (— GI% is below 15%)
SF-539 (CNS cancer)
  GI%: — (— GI% is below 15%)
[8]
  GI%: — (— GI% is below 15%)
UACC-257 (melanoma)
  GI%: — (— GI% is below 15%)
HOP-92 (NSC lung cancer)
  GI%: — (— GI% is below 15%)
SK-OV-3 (ovarian cancer)
  GI%: — (— GI% is below 15%)
[9]
  GI%: — (— GI% is below 15%)
HCT-15 (colon cancer)
  GI%: — (— GI% is below 15%)
EKVX (NSC lung cancer)
  GI%: — (— GI% is below 15%)
MALME-3M (melanoma)
  GI%: — (— GI% is below 15%)
DU-145 (prostate cancer)
  GI%: — (— GI% is below 15%)
[10]
  inhibition at 10 µM: < 0%
HOP-62 (NSC lung cancer)
  GI%: — (— GI% is below 15%)

## COc1ccc(-c2nnc3ccc(NN=Cc4ccc(C)cc4)nn23)cc1 [Compound 4f, 3-(4-Methoxyphenyl)-6-(2-(4-methylbenzylidene)hydrazinyl)-[1,2,4]triazolo[4,3-b]pyridazine]
KM12 (colon cancer)
  GI%: 31.89%
[1]
  GI%: — (— GI% is below 15%)
SK-MEL-28 (melanoma)
  GI%: — (— GI% is below 15%)
IGROV1 (ovarian cancer)
  GI%: — (— GI% is below 15%)
ACHN (renal cancer)
  GI%: 41.02%
OVCAR-5 (ovarian cancer)
  GI%: — (— GI% is below 15%)
SF-295 (CNS cancer)
  GI%: 43.09%
SF-268 (CNS cancer)
  GI%: 40.91%
[2]
  GI%: 74.21%
TK-10 (renal cancer)
  GI%: 17.28%
[3]
  GI%: 49.25%
MDA-MB-435 (melanoma)
  GI%: 35.32%
HCT-116 (colon cancer)
  GI%: 21.17%
SK-MEL-2 (melanoma)
  GI%: — (— GI% is below 15%)
[4]
  GI%: 66.62%
HS 578T (breast cancer)
  GI%: 70.93%
[5]
  GI%: 34.65%
PC-3 (prostate cancer)
  GI%: 27.83%
OVCAR-4 (ovarian cancer)
  GI%: 63.09%
HCC-2998 (colon cancer)
  GI%: 20.85%
M14 (melanoma)
  GI%: 16.52%
MCF7 (breast cancer)
  GI%: 42.84%
CAKI-1 (renal cancer)
  GI%: 45.37%
LOX IMIV (melanoma)
  GI%: 76.27%
CCRF-CEM (leukemia)
  GI%: — (— GI% is below 15%)
[6]
  GI%: 45.38%
U251 (CNS cancer)
  GI%: 55.13%
UO-31 (renal cancer)
  GI%: 66.50%
SW-620 (colon cancer)
  GI%: — (— GI% is below 15%)
SNB-19 (CNS cancer)
  GI%: — (— GI% is below 15%)
T-47D (breast cancer)
  GI%: 24.01%
HT29 (colon cancer)
  GI%: 17.40%
RPMI-8226 (leukemia)
  GI%: — (— GI% is below 15%)
786-0 (renal cancer)
  GI%: 43.09%
COLO-205 (colon cancer)
  GI%: 20.07%
UACC-62 (melanoma)
  GI%: — (— GI% is below 15%)
OVCAR-3 (ovarian cancer)
  GI%: 84.42%
RXF 393 (renal cancer)
  GI%: 37.84%
[7]
  GI%: — (— GI% is below 15%)
A498 (renal cancer)
  GI%: — (— GI% is below 15%)
OVCAR-8 (ovarian cancer)
  GI%: 58.61%
SN12C (renal cancer)
  GI%: 23.07%
SF-539 (CNS cancer)
  GI%: 38.74%
[8]
  GI%: 48.83%
UACC-257 (melanoma)
  GI%: — (— GI% is below 15%)
HOP-92 (NSC lung cancer)
  GI%: 81.11%
SK-OV-3 (ovarian cancer)
  GI%: 20.16%
[9]
  GI%: — (— GI% is below 15%)
HCT-15 (colon cancer)
  GI%: 50.02%
EKVX (NSC lung cancer)
  GI%: 31.76%
MALME-3M (melanoma)
  GI%: — (— GI% is below 15%)
DU-145 (prostate cancer)
  GI%: 60.93%
[10]
  inhibition at 10 µM: 34.8%
HOP-62 (NSC lung cancer)
  GI%: 29.57%
